# Key:
# [1] = tested on: diabetic retinopathy; test: Treatment of a patient with proliferative (left eye) and non-proliferative (right eye) diabetic retinopathy; type: in vivo, human; details: Example 10
# Procedure: A person complains of vision loss in the left eye. The patient reports an onset of Type II diabetes, and has been under treatment with metformin hydrochloride for 10 years.
# The patient is given an intravitreal injection comprising 150 μl of a solution of hyaluronic acid in which biodegradable PLGA microspheres (mean particle diameter of about 40 μm; lactide to glycolide ratio 75:25) are suspended. See U.S. patent application Ser. No. 11/368,845, filed Mar. 6, 2006, incorporated by reference herein in its entirety. Approximate weight of microspheres per dose was 20 mg. In addition to the PLGA polymer, the microspheres comprise approximately 5% by weight of an SDF-1α derivative that comprises a disulfide-linked dimer comprising two identical peptides, with each peptide comprising amino acids 1-9 of SDF-1 (these positions correspond to amino acids 22-47 of SEQ ID NO: 4, 5, and 6) with glycine substituted for proline in each position 2 (corresponding to position 23 of SEQ ID NO: 4, 5, and 6).
# The patient's visual acuity (and retinal condition under dilation) are monitored every two weeks for 8 weeks.
# The patient of Example 9 is treated by subconjunctival injection in each eye (100 μl volume in hyaluronic acid solution) of a single fibrous monolithic PLGA intraocular implant (approximately 120 μg; diameter approximately 3 mm) comprising 50% by weight of a CXCR4-inhibitory compound: N-[(S)-1-(1-naphthyl)ethyl]-5-(2-methylbenzyl)amino-2-(S)-[4-[N-(imidazole-2-ylmethyl)aminomethyl]benzoyl]aminopentanoylamide (see Yamzaki et al., U.S. Publication No. 2004/0254221.
# After 8 weeks visual acuity is tested, and has improved by 2 lines in each eye.
# The patient of Example 9 is administered an intravitreal injection in each eye comprising 150 μl of a solution of hyaluronic acid in which biodegradable PLGA microspheres (mean particle diameter of about 40 μm; lactide to glycolide ratio 75:25) are suspended. Approximate weight of microspheres per dose was 20 mg. […]
# [2] = tested on: ARPE-19 cells; test: Oxidative stress/cell viability (WST) assay in ARPE-19 cells exposed to t-BH; type: cell-based
# Procedure: ARPE 19 cells (American Type Tissue Collection (ATTC) Number CRL2302) were plated at a cell density of 6×10^4 cells per 10 cm tissue culture dish, in Delbecco's Modified Eagle's Medium (DMEM) F12 containing 10% fetal bovine serum (FBS) and 1% antibiotic/antimycotic solution (10,000 units of penicillin G (sodium salt), 10,000 μg/ml of streptomycin sulfate, and 25 μg/ml of amphotericin B in 0.85% saline) incubated at 37° C. overnight.
# These oligonucleotides or control oligonucleotides (Stealth RNAi negative control Med GC (Invitrogen, Inc.)) were added in 1.5 ml of OptiMem® media (Gibco BRL) to a final concentration of 25 nM. In a separate equal volume of OptiMem® media, 15 μl of lipofectamine reagent (Lipofectamine® 2000, Invitrogen, Inc.) was similarly added to equal volume of OptiMem® media and incubated at room temperature for 5 minutes.
# Both solutions were then mixed together and further incubated for 20 minutes at room temperature. The cells were washed once with OptiMem® media, the total volume of the mixture was brought up to 10 ml with OptiMem® media (Gibco BRL) and then added to the cells. Cells were permitted to incubate overnight at 37° C. 24 hours following transfection, the transfection mixture was removed and 10 ml of fresh DMEM F12 media added to the cells. […]
# Cell viability was measured using the WST assay (Chemicon International, Inc.) according to the manufacturer's instructions. […] Thus, the formazan dye produced by viable cells can be quantified by a multiwell spectrophotometer (microplate reader) by measuring the absorbance of the dye solution at 440 nm.
# In this case, 10 μl of WST-1 reagent was added to each well after 24 hours. The optimum assay development time was determined to be 1.5 hours. Plates were then read in a Spectramax M2 Platereader® at 450 nm. […]
# [3] = tested on: CXCR4 mRNA; test: CXCR4 RNA expression in ARPE-19 cells by whole human genome array hybridization; type: cell-based
# Procedure: To isolate RNA from cells, 1 ml Qiazol® (a phenol/guanidinium isothiocyanate-based RNAse inhibitory lysis buffer sold by Qiagen, Inc.) was added to the ARPE-19 cells and the lysates then scraped into 2 ml tubes. 200 μl of chloroform per ml of Qiazol® was then added, the tubes mixed and centrifuged at 12,000×g for 15 minutes at 4° C. The aqueous phase was removed and applied to an RNeasy® mini column (Qiagen), washed and the column eluted with water. Five micrograms of the eluate were used for subsequent RT-PCR reactions. RT-PCR reactions were carried out using the Stratascript® First Strand Synthesis System (Stratagene). The RNA was denatured at 65° C. for 5 minutes, cooled at RT for 10 minutes then incubated at 42° C. for 60 minutes with reverse transcriptase.
# A whole human genome DNA oligonucleotide array (Agilent Technnologies, G4112A array) was used to hybridize against RNA samples prepared from ARPE-19 cells treated with t-BH. This 44K slide format contains a collection of 60-mer oligonucleotides with sequences representing over 41 K human genes and transcripts.
# RNA labeling was performed using the Low RNA Input Fluorescent Linear Amplification kit (LIK®) from Agilent Technologies (#5184-3523) following the manufacturer's recommendations. Briefly, 200 ng of total RNA from the ARPE-19 cells isolated as described in Example 2 were reverse transcribed in a 20 μL volume using with 1 μL Moloney Murine Leukemia Virus reverse transcriptase (MMLV-RT) and 1.2 μL of T7 promoter primer in 1× First Strand Buffer at 40° C. for 2 hours. From the double-stranded DNA preparation, transcription and direct labeling were prepared in 80 μL at 40° C. for 2 hours using 0.8 μL of T7 RNA polymerase, 0.6 μL inorganic pyrrophosphatase, 2.4 μL of each Cy-dye-CTP at 10 mM (PerkinElmer/NEN Life Sciences Cyanine-3-CTP #NEL580 and Cyanine-5-CTP #NEL581) in 4% PEG solution and 1× Transcription buffer. Cyanine dyes are highly sensitive fluorescent dyes.
# Amplified and labeled cRNA was purified on Rneasy® mini columns (Qiagen, Inc.) according to manufacturer's protocol. cRNA was quantified by absorbance at 260 nm, 550 nm and 650 nm. Once labeling is complete, both Cy3 and Cy5 RNA samples are combined and hybridized to the microarray using the Agilent In Situ Hybridization kit (#5184-3568) following Agilent's recommendations.
# Briefly 750 ng of cyanine 3-labeled linearly amplified cRNA and 750 ng of cyanine 5-labeled linearly amplified cRNA are combined to 1× control targets, 0.5× fragmentation buffer. This 2× target solution is denaturated at 60° C. for 30 minutes and 1× hybridization buffer in a 500 μL final volume is added to terminate the fragmentation reaction.
# The target solution is then dispensed onto the 44K microarray. Incubation time was 17 hours at 60° C. in a hybridization oven with rotation at 4 rpm (Agilent Technologies #G2545A). Washes were performed for 5 minutes in 6×SSPE, 0.005% N-lauroyl sarcosine at room temperature, then for 5 minutes in 0.06×SSPE, 0.005% N-lauroyl sarcosine at room temperature, and finally for 30 seconds in Agilent Stabilization and Drying Solution®. The dried slides were scanned using a microarray scanner.
# Total RNA was isolated from the cells (uninduced with t-BH) and the amount of CXCR4 RNA determined by gene array hybridization. The amount of CXCR4 in the naïve cells are standardized as “100%”.
compound,measurement,setting,value
Cc1ccccc1CNCCC[C@H](NC(=O)c1ccc(CNCc2ncc[nH]2)cc1)C(=O)N[C@@H](C)c1cccc2ccccc12 [N-[(S)-1-(1-naphthyl)ethyl]-5-(2-methylbenzyl)amino-2-(S)-[4-[N-(imidazole-2-ylmethyl)aminomethyl]benzoyl]aminopentanoylamide],fluorescein angiography: leakage of blood into the retina,[1]; after 6 weeks,does not reveal any leakage of blood into the retina
same,"improvement in visual acuity, each eye",[1]; after 8 weeks,2 lines
same,macular edema,"[1]; subconjunctival PLGA implant, 50% by weight compound, each eye, after 6 weeks",barely observable
"CC(C)(C)OO [t-BH, tertiary-butylhydroperoxide]",cells surviving for at least 24 hours,"[2]; ARPE-19 cells exposed to t-BH for 3 hours, then non t-BH-containing media",approximately 70%
same,cell death,[2]; ARPE-19 cells exposed to t-BH for 6 hours,cell death by 24 hours
same,expression of CXCR4 RNA over baseline,"[3]; ARPE-19 cells, immediately after six hours' incubation with t-BH",30 fold
same,increase in expression of CXCR4 RNA over baseline,"[3]; ARPE-19 cells, immediately after three hours' exposure to t-BH, untreated cells as baseline",20 fold
same,reduction in CXCR4 expression after recovery,"[3]; t-BH for three hours, then further three hours in t-BH-free medium",almost no reduction in CXCR4 expression
same,decrease in CXCR4 RNA after recovery,"[3]; t-BH for three hours, then further twenty four hours in t-BH-free medium, versus levels immediately following exposure",approximately 35%
"Pair 1: anti-CXCR4 double-stranded siRNA, SEQ ID NO: 10 and SEQ ID NO: 11 (chain 1 AACAGUGGAAGAAAGCUAGGGGCUC; chain 2 GAGGCCCUAGCUUUCUUCCACUGUU; listed as RNA, chemistry not given here)",inhibition of cell death induced by oxidative stress (WST cell viability),"[2]; ARPE-19 cells, 300 uM t-BH for 6 hours, siRNA at 10 nM or 25 nM, FIG. 2",inhibits the cell death induced by oxidative stress (exposure to 300 uM t-BH) in a dose-dependent fashion
same,expression of intact intracellular CXCR4 RNA,"[3]; cells uninduced with t-BH, compared to cells untreated with siRNA or given control siRNA, FIG. 3",reduce the expression of intact intracellular CXCR4 RNA
